Reference: paper PMC10686834, “Targeting myeloid chemotaxis to reverse prostate cancer therapy resistance” (Nature, 2023)
“Also recorded” adds a separate entry of the source.

System: patients with ARSI-resistant mCRPC
Test: Phase 1 trial of AZD5069 plus enzalutamide: safety and tolerability (DLTs, treatment-emergent adverse events, NCI-CTCAE v.4.0)
Type: in vivo
Excerpt: The primary trial objective was to evaluate the safety and tolerability of the combination. Key secondary objectives were to evaluate pharmacokinetic–pharmacodynamic parameters and antitumour activity.
Eligible patients were consenting patients aged ≥18 years, who had mCRPC with histologically confirmed prostate adenocarcinoma histology, documented cancer progression at the time of trial entry by Response Evaluation Criteria in Solid Tumors (v.1.1) and/or Prostate Cancer Working Group 2 criteria, and PSA of ≥10 ng ml^−1 at screening.
The dose-escalation phase used a rule-based 3 + 3 design, with an initial three patients enrolled per dose level. If none of the first three patients experienced a DLT, dose escalation proceeded to the next dose level. […] If fewer than two of six patients at any dose level experienced a DLT, dose escalation continued to the next level. If at least two out of up to six patients experienced a DLT, dose escalation stopped and this dose level was defined as the maximum administered dose. Once this maximum administered dose was defined, the maximum tolerated dose (MTD) was confirmed at the dose level below the maximum administered dose. At least six evaluable patients were required to establish the MTD at a specific dose level. […] Intra-patient dose escalation was not permitted. Start of dosing between the first and second patient enrolled to each dose level was staggered by 1 week. Once the MTD was determined in the phase 1 study, the recommended phase 2 dose was determined on the basis of available data, including but not limited to safety and response.
DLTs were defined as described in the study protocol. […] Prophylaxis with growth factor support or antipyretics were not permitted. Investigators determined whether an adverse event was related to the study drugs. If a patient experienced clinically significant and/or unacceptable toxicity, including a DLT, not attributable to the disease or disease-related processes, dosing was interrupted or the dose was reduced and supportive therapy was administered as required.

## C[C@@H](Oc1cc(NS(=O)(=O)N2CCC2)nc(SCc2cccc(F)c2F)n1)[C@@H](O)CO [AZD5069]
AZD5069 40 mg BD (n=3)
  TEAE Anemia, All G: 1 (33) n (%)
  TEAE Anemia, G≥3: 0 (0) n (%)
  TEAE Aphasia, All G: 0 (0) n (%)
  TEAE Aphasia, G≥3: 0 (0) n (%)
  TEAE Arthralgia, All G: 0 (0) n (%)
  TEAE Arthralgia, G≥3: 0 (0) n (%)
  TEAE Aspartate aminotransferase increased, All G: 0 (0) n (%)
  TEAE Aspartate aminotransferase increased, G≥3: 0 (0) n (%)
  TEAE Constipation, All G: 0 (0) n (%)
  TEAE Constipation, G≥3: 0 (0) n (%)
  TEAE Death, All G: 0 (0) n (%)
  TEAE Death, G≥3: 0 (0) n (%)
  TEAE Decreased appetite, All G: 0 (0) n (%)
  TEAE Decreased appetite, G≥3: 0 (0) n (%)
  TEAE Diarrhoea, All G: 0 (0) n (%)
  TEAE Diarrhoea, G≥3: 0 (0) n (%)
  TEAE Dry skin, All G: 0 (0) n (%)
  TEAE Dry skin, G≥3: 0 (0) n (%)
  TEAE Fatigue, All G: 0 (0) n (%)
  TEAE Fatigue, G≥3: 0 (0) n (%)
  TEAE Headache, All G: 0 (0) n (%)
  TEAE Headache, G≥3: 0 (0) n (%)
  TEAE Hypophosphataemia, All G: 0 (0) n (%)
  TEAE Hypophosphataemia, G≥3: 0 (0) n (%)
  TEAE Nausea, All G: 1 (33) n (%)
  TEAE Nausea, G≥3: 0 (0) n (%)
  TEAE Neutrophil decreased, All G: 2 (67) n (%)
  TEAE Neutrophil decreased, G≥3: 0 (0) n (%)
  TEAE Oedema genital, All G: 0 (0) n (%)
  TEAE Oedema genital, G≥3: 0 (0) n (%)
  TEAE Platelet decreased, All G: 0 (0) n (%)
  TEAE Platelet decreased, G≥3: 0 (0) n (%)
  TEAE Pruritus, All G: 1 (33) n (%)
  TEAE Pruritus, G≥3: 0 (0) n (%)
  TEAE Skin infection, All G: 0 (0) n (%)
  TEAE Skin infection, G≥3: 0 (0) n (%)
  TEAE Vomiting, All G: 1 (33) n (%)
  TEAE Vomiting, G≥3: 0 (0) n (%)
  TEAE White blood cell decreased, All G: 0 (0) n (%)
  TEAE White blood cell decreased, G≥3: 0 (0) n (%)
AZD5069 40 mg BD to 320 mg BD plus enzalutamide 160 mg OD, 21 patients evaluable for DLTs
  dose-limiting toxicity (DLT): did not observe any DLT; also recorded: without dose-limiting toxicity
AZD5069 80 mg BD (n=4)
  TEAE Anemia, All G: 0 (0) n (%)
  TEAE Anemia, G≥3: 0 (0) n (%)
  TEAE Aphasia, All G: 0 (0) n (%)
  TEAE Aphasia, G≥3: 0 (0) n (%)
  TEAE Arthralgia, All G: 0 (0) n (%)
  TEAE Arthralgia, G≥3: 0 (0) n (%)
  TEAE Aspartate aminotransferase increased, All G: 0 (0) n (%)
  TEAE Aspartate aminotransferase increased, G≥3: 0 (0) n (%)
  TEAE Constipation, All G: 0 (0) n (%)
  TEAE Constipation, G≥3: 0 (0) n (%)
  TEAE Death, All G: 0 (0) n (%)
  TEAE Death, G≥3: 0 (0) n (%)
  TEAE Decreased appetite, All G: 0 (0) n (%)
  TEAE Decreased appetite, G≥3: 0 (0) n (%)
  TEAE Diarrhoea, All G: 0 (0) n (%)
  TEAE Diarrhoea, G≥3: 0 (0) n (%)
  TEAE Dry skin, All G: 0 (0) n (%)
  TEAE Dry skin, G≥3: 0 (0) n (%)
  TEAE Fatigue, All G: 1 (25) n (%)
  TEAE Fatigue, G≥3: 0 (0) n (%)
  TEAE Headache, All G: 0 (0) n (%)
  TEAE Headache, G≥3: 0 (0) n (%)
  TEAE Hypophosphataemia, All G: 1 (25) n (%)
  TEAE Hypophosphataemia, G≥3: 0 (0) n (%)
  TEAE Nausea, All G: 0 (0) n (%)
  TEAE Nausea, G≥3: 0 (0) n (%)
  TEAE Neutrophil decreased, All G: 3 (75) n (%)
  TEAE Neutrophil decreased, G≥3: 1 (25) n (%)
  TEAE Oedema genital, All G: 0 (0) n (%)
  TEAE Oedema genital, G≥3: 0 (0) n (%)
  TEAE Platelet decreased, All G: 0 (0) n (%)
  TEAE Platelet decreased, G≥3: 0 (0) n (%)
  TEAE Pruritus, All G: 0 (0) n (%)
  TEAE Pruritus, G≥3: 0 (0) n (%)
  TEAE Skin infection, All G: 1 (25) n (%)
  TEAE Skin infection, G≥3: 0 (0) n (%)
  TEAE Vomiting, All G: 0 (0) n (%)
  TEAE Vomiting, G≥3: 0 (0) n (%)
  TEAE White blood cell decreased, All G: 0 (0) n (%)
  TEAE White blood cell decreased, G≥3: 0 (0) n (%)
AZD5069 120 mg BD (n=3)
  TEAE Anemia, All G: 1 (33) n (%)
  TEAE Anemia, G≥3: 0 (0) n (%)
  TEAE Aphasia, All G: 0 (0) n (%)
  TEAE Aphasia, G≥3: 0 (0) n (%)
  TEAE Arthralgia, All G: 0 (0) n (%)
  TEAE Arthralgia, G≥3: 0 (0) n (%)
  TEAE Aspartate aminotransferase increased, All G: 0 (0) n (%)
  TEAE Aspartate aminotransferase increased, G≥3: 0 (0) n (%)
  TEAE Constipation, All G: 1 (33) n (%)
  TEAE Constipation, G≥3: 0 (0) n (%)
  TEAE Death, All G: 0 (0) n (%)
  TEAE Death, G≥3: 0 (0) n (%)
  TEAE Decreased appetite, All G: 0 (0) n (%)
  TEAE Decreased appetite, G≥3: 0 (0) n (%)
  TEAE Diarrhoea, All G: 0 (0) n (%)
  TEAE Diarrhoea, G≥3: 0 (0) n (%)
  TEAE Dry skin, All G: 0 (0) n (%)
  TEAE Dry skin, G≥3: 0 (0) n (%)
  TEAE Fatigue, All G: 1 (33) n (%)
  TEAE Fatigue, G≥3: 0 (0) n (%)
  TEAE Headache, All G: 0 (0) n (%)
  TEAE Headache, G≥3: 0 (0) n (%)
  TEAE Hypophosphataemia, All G: 0 (0) n (%)
  TEAE Hypophosphataemia, G≥3: 0 (0) n (%)
  TEAE Nausea, All G: 1 (33) n (%)
  TEAE Nausea, G≥3: 0 (0) n (%)
  TEAE Neutrophil decreased, All G: 3 (100) n (%)
  TEAE Neutrophil decreased, G≥3: 2 (67) n (%)
  TEAE Oedema genital, All G: 0 (0) n (%)
  TEAE Oedema genital, G≥3: 0 (0) n (%)
  TEAE Platelet decreased, All G: 1 (33) n (%)
  TEAE Platelet decreased, G≥3: 0 (0) n (%)
  TEAE Pruritus, All G: 0 (0) n (%)
  TEAE Pruritus, G≥3: 0 (0) n (%)
  TEAE Skin infection, All G: 0 (0) n (%)
  TEAE Skin infection, G≥3: 0 (0) n (%)
  TEAE Vomiting, All G: 0 (0) n (%)
  TEAE Vomiting, G≥3: 0 (0) n (%)
  TEAE White blood cell decreased, All G: 0 (0) n (%)
  TEAE White blood cell decreased, G≥3: 0 (0) n (%)
AZD5069 160 mg BD (n=6)
  TEAE Anemia, All G: 2 (33) n (%)
  TEAE Anemia, G≥3: 1 (17) n (%)
  TEAE Aphasia, All G: 0 (0) n (%)
  TEAE Aphasia, G≥3: 0 (0) n (%)
  TEAE Arthralgia, All G: 0 (0) n (%)
